In patent US10183944B2 (Asana Biosciences, LLC, priority 2011, dated 2019):
Counter-ions that a name gives are not always drawn. Like-named read-outs stand apart in the source and are kept apart here.

Tests used:
RBL2H3 cells = experiment: Degranulation assay: β-hexosaminidase release during immune complex mediated degranulation; format: cell-based, rat; conditions: Assay Protocol B (96 well format); for inhibition at 1 µM: read-out: Degranulation % inhibition at 1 μM; for EC50: read-out: Degranulation EC50
Protocol: The objective of this assay was to examine by Fluorescence method the effect of compounds on β-hexosaminidase release during immune complex mediated degranulation in RBL2H3 cells. Compounds were tested for their ability to inhibit the ability of this immune complex to mediate β-hexosaminidase release, in an enzyme assay with […] as substrate. […] Emission 460 nm). [table] [table] RBL2H3 cells were maintained in MEM complete media containing 10% FBS at 70%-80% confluence in a mammalian cell culture CO2 incubator with 5% CO2 at 37° C. 2×10^5 cells/well were plated in 1 mL of complete media and incubated for 5 hours for cell attachment. Complete media was replaced with 1 mL of serum free MEM media containing 1.2 μg/mL of anti-DNP rat IgE as sensitizing agent and further incubated overnight with 5% CO2 at 37° C. […] Cells were further stimulated with 5 μg/mL of DNP-BSA for 60 minutes. Plates were centrifuged for 5 minutes at 1000 rpm and 25 μL of culture supernatant was transferred from each assay well into a 96 well black coated plate. 25 μL β-NAG substrate was added to this mixture and incubated at room temperature for 30 minutes. The reaction was terminated with 100 μL of stop solution and fluorescence was monitored. (Excitation 355 nm; Emission 460 nm) See, Sanderson, (2010), Cellular Immunology, 262(1): 28-34 and Silverman, (2006) MCB, 26(5):1826-1838, which are incorporated herein by reference. The % release of β-Hexosaminidase for the test compound was calculated using the following formula: RBL2H3 cells were maintained in MEM complete media containing 10% FBS at 70-80% confluence in a mammalian cell culture CO2 incubator with 5% CO2 at 37° C. 5×10^4 cells/well were plated in 200 μL of complete media containing 0.3 μg/mL of anti-DNP rat IgE as sensitizing agent for 24 hours at 37° C. & 5% CO2. The following day, cells were washed twice with PIPES buffer for 10 minutes at 37° C. and replenished with serum free MEM media. Cells were treated with various concentrations of test compounds (in 0.5% DMSO) for 15 minutes at 37° C. and 5% CO2. The cells were further stimulated with 0.1 μg/mL of DNP-BSA for 45 minutes. The plates were spun for 5 minutes at 2000 rpm and 25 μL of culture supernatant was then transferred from each assay well into a 96 well black coated plate. […] β-NAG substrate was added and incubated at RT for 30 minutes. After incubation with substrate, 150 μL of stop solution was added and fluorescence was monitored. (Excitation 355 nm; Emission 460 nm). See, Yamamoto, JPET, 306(3):1174-1181 (2003) and Taylor, MCB, 15(8): 4149-4157 (1995), which are herein incorporated by reference. Release of β-hexosaminidase during the degranulation process by immune complex mediated FcεRI stimulation is through the SYK pathway. The % inhibition of β-hexosaminidase release by Syk inhibitor gives information with regard to its Syk inhibition potency.

[1] = target: Syk (356-635 amino acids) catalytic domain (Homo sapiens (Human), UniProt P43405); experiment: Inhibition of enzymatic Syk kinase activity (radiometric); format: biochemical; conditions: read-out: IC50 Syk
In short: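 Human Syk (356-635) kinase domain (0.035–7.5 ng/reaction) preincubated with compound 30 minutes at room temperature, then reacted with pG4T substrate, 100 μM ATP (stock) and γ-32P-ATP for 10 minutes at 30° C. Reaction stopped with HCl/ATP, spotted on P81 paper, washed and counted by scintillation. Percent inhibition versus no-compound counts.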

JAK2 = JAK2 (Homo sapiens (Human), UniProt O60674); experiment: Inhibition of enzymatic JAK2 kinase activity (TR-FRET); format: biochemical; conditions: read-out: IC50 JAK
In short: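 Enzyme preincubated with compound 30 min at RT, then Ulight-poly-GT substrate and ATP added for 60 min at RT. EDTA stop, Eu-antiphosphotyrosine antibody; TR-FRET ratio 665/615 nm (ex 340 nm), blank-corrected; % inhibition versus positive control.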

[2] = Rattus norvegicus, RBL-2H3, 1 μM

JAK2, sequence (O60674 808-1132): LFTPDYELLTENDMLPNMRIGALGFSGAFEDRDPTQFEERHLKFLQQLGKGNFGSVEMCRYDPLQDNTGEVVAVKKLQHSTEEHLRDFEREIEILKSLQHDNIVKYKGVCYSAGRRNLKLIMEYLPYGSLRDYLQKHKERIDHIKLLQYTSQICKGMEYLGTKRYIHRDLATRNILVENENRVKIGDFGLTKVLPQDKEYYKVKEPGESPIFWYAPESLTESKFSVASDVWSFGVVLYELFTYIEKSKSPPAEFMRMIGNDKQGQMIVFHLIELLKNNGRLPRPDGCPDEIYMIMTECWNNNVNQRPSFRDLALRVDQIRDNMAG

O=c1[nH]ncc2nc(N3CCCCCC3)nc(Nc3ccc(OC4CCNCC4)cc3)c12 [Example 292, 2-(azepan-1-yl)-4-((4-(piperidin-4-yloxy)phenyl)amino)pyrimido[4,5-d]pyridazin-5(6H)-one hydrochloride] was tested, and the inhibition at 1 µM (RBL2H3 cells; [2]) was 65%, the EC50 (RBL2H3 cells; Rattus norvegicus, RBL-2H3) was 83 nM and the IC50 [1] was less than 10 nM. The IC50 (JAK2) was less than 10 nM.
Work on CCN1CCN(CCOc2ccc(Nc3nc(N4CCCCCC4)nc4cn[nH]c(=O)c34)cc2)CC1 [Example 151, 2-(azepan-1-yl)-4-((4-(2-(4-ethylpiperazin-1-yl)ethoxy)phenyl)amino) pyrimido[4,5-d]pyridazin-5(6H)-one] yielded an EC50 (RBL2H3 cells; Rattus norvegicus, RBL-2H3) of 24 nM.
With N#CCC1CCN(c2nc(Nc3ccc(N4CCC5(CC4)CC5C(=O)O)cc3)c3c(=O)[nH]ncc3n2)CC1 (stereo not shown) [Example 66, 6-(4-((2-(4-(cyanomethyl)piperidin-1-yl)-5-oxo-5,6-dihydropyrimido[4,5-d]pyridazin-4-yl)amino)phenyl)-6-azaspiro[2.5]octane-1-carboxylic acid] the inhibition at 1 µM (RBL2H3 cells; [2]) was 75%, the EC50 (RBL2H3 cells; Rattus norvegicus, RBL-2H3) was 352 nM and the IC50 [1] was less than 50 nM.
O=c1[nH]ncc2nc(N3CCCCCC3)nc(Nc3ccc(OCCN4CCNCC4)cc3)c12 [Example 89, 2-(azepan-1-yl)-4-((4-(2-(piperazin-1-yl)ethoxy)phenyl)amino)pyrimido[4,5-d]pyridazin-5(6H)-one hydrochloride] showed an inhibition at 1 µM (RBL2H3 cells; [2]) of 100%.
In the case of N#CCC1CCN(c2nc(Nc3ccc(OCCC4CCNCC4)cc3)c3c(=O)[nH]ncc3n2)CC1 [Example 169, 2-(1-(5-oxo-4-((4-(2-(piperidin-4-yl)ethoxy)phenyl)amino)-5,6-dihydropyrimido[4,5-d]pyridazin-2-yl)piperidin-4-yl)acetonitrile], the inhibition at 1 µM (RBL2H3 cells; [2]) is reported as 17%, the EC50 (RBL2H3 cells; Rattus norvegicus, RBL-2H3) is reported as 230 nM and the IC50 [1] is reported as less than 50 nM.
O=c1[nH]ncc2nc(N3CCCCCC3)nc(Nc3ccc(N4CCN(CCO)CC4)cc3)c12 [Example 190, 2-(azepan-1-yl)-4-((4-(4-(2-hydroxyethyl)piperazin-1-yl)phenyl)amino)pyrimido[4,5-d]pyridiazin-5(6H)-one] was tested, and the “Degranulation % inhibition at 1 μM” value (RBL2H3 cells; 1 μM) was 83% and the EC50 (RBL2H3 cells) was 21 nM.
O=C(O)CC1CCN(c2ccc(Nc3nc(N4CCCCCC4)nc4cn[nH]c(=O)c34)cc2)CC1 [Example 69, 2-(1-(4-((2-(azepan-1-yl)-5-oxo-5,6-dihydropyrimido[4,5-d]pyridazin-4-yl)amino)phenyl)piperidin-4-yl)acetic acid] was tested, and the inhibition at 1 µM (RBL2H3 cells; [2]) was 100%, the EC50 (RBL2H3 cells; Rattus norvegicus, RBL-2H3) was 31 nM and the IC50 [1] was less than 10 nM.
O=C(O)CN1CCN(c2ccc(Nc3nc(N4CCCCCC4)nc4cn[nH]c(=O)c34)cc2)CC1 [Example 125, 2-(4-(4-((2-(azepan-1-yl)-5-oxo-5,6-dihydropyrimido[4,5-d]pyridazin-4-yl)amino)phenyl)piperazin-1-yl)acetic acid] was tested, and the inhibition at 1 µM (RBL2H3 cells; [2]) was 38% and the EC50 (RBL2H3 cells; Rattus norvegicus, RBL-2H3) was 238 nM.
O=C(c1ccc(Nc2nc(N3CCCCCC3)nc3cn[nH]c(=O)c23)cc1)N1CCOCC1 [Example 68, 2-(azepan-1-yl)-4-((4-(morpholine-4-carbonyl)phenyl)amino)pyrimido[4,5-d]pyridazin-5(6H)-one] gave an inhibition at 1 µM (RBL2H3 cells; [2]) of 100%, an EC50 (RBL2H3 cells; Rattus norvegicus, RBL-2H3) of 1.2 nM and an IC50 [1] of less than 100 nM.
N#CCC1CCN(c2nc(Nc3ccc(CCCN4CCNCC4)cc3)c3c(=O)[nH]ncc3n2)CC1 [Example 174, 2-(1-(5-oxo-4-((4-(3-(piperazin-1-yl)propyl)phenyl)amino)-5,6-dihydropyrimido[4,5-d]pyridazin-2-yl)piperidin-4-yl)acetonitrile] showed an inhibition at 1 µM (RBL2H3 cells; [2]) of 99% and an EC50 (RBL2H3 cells; Rattus norvegicus, RBL-2H3) of 15 nM.
For O=c1[nH]ncc2nc(N3CCCCCC3)nc(Nc3ccc(OCCN4CCCNCC4)cc3)c12 [Example 164, 4-((4-(2-(1,4-diazepan-1-yl)ethoxy)phenyl)amino)-2-(azepan-1-yl)pyrimido[4,5-d]pyridazin-5(6H)-one], the EC50 (RBL2H3 cells; Rattus norvegicus, RBL-2H3) was 55 nM.
CCN1CCN(CCc2ccc(Nc3nc(N4CCCCCC4)nc4cn[nH]c(=O)c34)cc2)CC1 [Example 209, 2-(azepan-1-yl)-4-((4-(2-(4-ethylpiperazin-1-yl)ethyl)phenyl)amino) pyrimido[4,5-d]pyridazin-5(6H)-one] showed an inhibition at 1 µM (RBL2H3 cells; [2]) of 81%, an EC50 (RBL2H3 cells; Rattus norvegicus, RBL-2H3) of 29 nM and an IC50 [1] of less than 10 nM.
With CC1CC(C)CN(c2nc(Nc3ccc(N4CCC(CC(=O)O)CC4)cc3)c3c(=O)[nH]ncc3n2)C1 (stereo not shown) [Example 117, 2-(1-(4-((2-(3,5-dimethylpiperidin-1-yl)-5-oxo-5,6-dihydropyrimido[4,5-d]pyridazin-4-yl)amino)phenyl)piperidin-4-yl)acetic acid] the inhibition at 1 µM (RBL2H3 cells; [2]) was 89% and the EC50 (RBL2H3 cells; Rattus norvegicus, RBL-2H3) was 95 nM.
N#CCC1CCN(c2ccc(Nc3nc(N4CCC(CC#N)CC4)nc4cn[nH]c(=O)c34)cn2)CC1 [Example 103, 2-(1-(5-((2-(4-(cyanomethyl)piperidin-1-yl)-5-oxo-5,6-dihydropyrimido[4,5-d]pyridazin-4-yl)amino)pyridin-2-yl)piperidin-4-yl)acetonitrile] was tested, and the inhibition at 1 µM (RBL2H3 cells; [2]) was 87% and the EC50 (RBL2H3 cells; Rattus norvegicus, RBL-2H3) was 32 nM.
With O=C(O)C1CC12CCN(c1ccc(Nc3nc(-c4ccc(F)cc4)nc4cn[nH]c(=O)c34)cc1)CC2 (stereo not shown) [Example 133, 6-(4-((2-(4-fluorophenyl)-5-oxo-5,6-dihydropyrimido[4,5-d]pyridazin-4-yl)amino)phenyl)-6-azaspiro[2.5]octane-1-carboxylic acid] the inhibition at 1 µM (RBL2H3 cells; [2]) was 98% and the EC50 (RBL2H3 cells; Rattus norvegicus, RBL-2H3) was 25 nM.
In the case of CN(c1nc(Nc2ccc(N3CCC4(CC3)CC4C(=O)O)cc2)c2c(=O)[nH]ncc2n1)C1CCCCC1 (stereo not shown) [Example 170, 6-(4-((2-(cyclohexyl(methyl)amino)-5-oxo-5,6-dihydropyrimido[4,5-d]pyridazin-4-yl)amino)phenyl)-6-azaspiro[2.5]octane-1-carboxylic acid], the inhibition at 1 µM (RBL2H3 cells; [2]) is reported as 39% and the EC50 (RBL2H3 cells; Rattus norvegicus, RBL-2H3) is reported as 107 nM.
Compound N#CCC1CCN(c2nc(Nc3ccc(N4CCC(F)CC4)cc3)c3c(=O)[nH]ncc3n2)CC1 [Example 290, 2-(1-(4-((4-(4-fluoropiperidin-1-yl)phenyl)amino)-5-oxo-5,6-dihydropyrimido[4,5-d]pyridazin-2-yl)piperidin-4-yl)acetonitrile] has an inhibition at 1 µM (RBL2H3 cells; [2]) of 100% and an EC50 (RBL2H3 cells; Rattus norvegicus, RBL-2H3) of 20 nM.
CCN1CCN(c2ccc(Nc3nc(N4CCCCCC4)nc4cn[nH]c(=O)c34)cn2)CC1 [Example 229, 2-(azepan-1-yl)-4-((6-(4-ethylpiperazin-1-yl)pyridin-3-yl)amino)pyrimido[4,5-d]pyridazin-5(6H)-one] gave an IC50 [1] of less than 50 nM and an IC50 (JAK2) of less than 10 nM.
O=c1[nH]ncc2nc(N3CCCCCC3)nc(Nc3ccc(N4CCNCC4)nc3)c12 [Example 221, 2-(azepan-1-yl)-4-((6-(piperazin-1-yl)pyridin-3-yl)amino)pyrimido[4,5-d]pyridazin-5(6H)-one] was tested, and the IC50 [1] was less than 50 nM and the IC50 (JAK2) was less than 10 nM.
N#CCN1CCN(c2nc(Nc3ccc(N4CCC(CC(=O)O)CC4)cc3)c3c(=O)[nH]ncc3n2)CC1 [Example 70, 2-(1-(4-((2-(4-(cyanomethyl)piperazin-1-yl)-5-oxo-5,6-dihydropyrimido[4,5-d]pyridazin-4-yl)amino)phenyl)piperidin-4-yl)acetic acid] gave an IC50 [1] of less than 100 nM and an IC50 (JAK2) greater than 100 nM.
N#CCC1CCN(c2nc(Nc3ccc(N4CCCC(CC(=O)O)C4)cc3)c3c(=O)[nH]ncc3n2)CC1 (stereo not shown) [Example 250, 2-(1-(4-((2-(4-(cyanomethyl)piperidin-1-yl)-5-oxo-5,6-dihydropyrimido[4,5-d]pyridazin-4-yl)amino)phenyl)piperidin-3-yl)acetic acid] was tested, and the IC50 [1] was less than 50 nM and the IC50 (JAK2) was less than 10 nM.
